# Article PMC9851200, “Multiparameter phenotypic screening for endogenous TFEB and TFE3 translocation identifies novel chemical series modulating lysosome function” (Autophagy, 2022)
# “Also recorded” adds a separate entry of the source.
# Assays:
# PRKD1 = biological target: T1, PRKD1 (Homo sapiens, UniProt Q15139); assay: KINOMEscan PRKD1; format: binding; conditions: NEW KINOMEscan
# T1 sequence (Q15139 1-912): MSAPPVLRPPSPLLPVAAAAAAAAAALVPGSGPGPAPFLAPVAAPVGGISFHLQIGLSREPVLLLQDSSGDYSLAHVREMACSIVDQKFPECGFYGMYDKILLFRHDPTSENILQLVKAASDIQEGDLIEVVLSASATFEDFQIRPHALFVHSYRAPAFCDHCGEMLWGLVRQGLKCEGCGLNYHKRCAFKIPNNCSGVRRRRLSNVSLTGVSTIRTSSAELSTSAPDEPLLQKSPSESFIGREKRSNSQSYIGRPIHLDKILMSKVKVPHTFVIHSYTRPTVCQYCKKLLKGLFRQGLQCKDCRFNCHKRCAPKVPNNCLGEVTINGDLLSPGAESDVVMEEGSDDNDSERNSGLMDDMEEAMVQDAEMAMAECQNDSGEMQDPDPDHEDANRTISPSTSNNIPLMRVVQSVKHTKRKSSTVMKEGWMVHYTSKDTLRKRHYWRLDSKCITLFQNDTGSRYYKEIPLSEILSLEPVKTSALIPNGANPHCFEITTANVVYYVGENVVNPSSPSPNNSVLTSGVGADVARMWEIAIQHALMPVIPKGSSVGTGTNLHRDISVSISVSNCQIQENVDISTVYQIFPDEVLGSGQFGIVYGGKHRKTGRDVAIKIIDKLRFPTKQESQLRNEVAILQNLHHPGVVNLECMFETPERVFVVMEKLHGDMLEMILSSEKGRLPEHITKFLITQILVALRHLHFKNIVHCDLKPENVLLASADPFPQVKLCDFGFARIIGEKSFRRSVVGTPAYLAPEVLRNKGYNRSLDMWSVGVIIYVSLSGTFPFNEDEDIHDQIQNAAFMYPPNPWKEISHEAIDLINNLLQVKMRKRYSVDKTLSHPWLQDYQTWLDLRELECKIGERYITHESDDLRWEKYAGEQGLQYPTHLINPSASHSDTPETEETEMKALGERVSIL
# MAPK9/JNK2 = MAPK9/JNK2 (Homo sapiens, UniProt P45984); format: binding
# MAPK9/JNK2, sequence (P45984 whole entry): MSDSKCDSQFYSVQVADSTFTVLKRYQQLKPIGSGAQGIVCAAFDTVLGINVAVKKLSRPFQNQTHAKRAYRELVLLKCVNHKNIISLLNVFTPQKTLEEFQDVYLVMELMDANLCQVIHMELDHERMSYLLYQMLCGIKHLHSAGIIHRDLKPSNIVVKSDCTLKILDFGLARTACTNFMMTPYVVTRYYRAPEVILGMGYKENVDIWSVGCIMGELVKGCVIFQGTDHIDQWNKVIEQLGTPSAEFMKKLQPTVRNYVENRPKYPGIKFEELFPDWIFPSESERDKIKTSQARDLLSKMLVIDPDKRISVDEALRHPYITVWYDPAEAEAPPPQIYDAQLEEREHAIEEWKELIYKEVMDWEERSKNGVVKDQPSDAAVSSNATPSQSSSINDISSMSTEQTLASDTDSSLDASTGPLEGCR
# GFP-Ex1HTT74Q = assay: HTT aggregation assay, PC12 cells expressing GFP-Ex1HTT74Q; format: cell-based; conditions: 48 h, 16 nM - 2 µM
# Method: PC12 cells stably expressing GFP-tagged exon 1 of HTT with a 74-repeat polyglutamine-expansion (GFP-Ex1HTT74Q) under tetracycline-inducible promoter control [41]were maintained at 37°C and 5% CO2 in RPMI medium (Sigma Aldrich, R8758) supplemented with 10% horse serum (Sigma Aldrich, H1138), 5% fetal bovine serum, 1% Glutamine (Sigma Aldrich, G7513), 1% Pen-Strep (Sigma, P0781), 0.1 mg/mL G418 (ThermoFisher, 10,131,035), and 0.07 mg/mL hygromycin B (ThermoFisher, 10,687,010). Cells were plated at a density of 10,000 per well in 96-well black cycloolefin thin-bottom plates (Perkin Elmer, 6,055,300) coated with collagen IV (Sigma Aldrich, C5533). After 5 h, expression of GFP-Ex1HttQ74 was induced with doxycycline (100 ng/mL; Sigma Aldrich, D3447). After 16 h of induction, compounds (final concentrations 16 nM – 2 µM) were added in fresh medium with doxycycline (100 ng/ml). Final concentration of DMSO (Sigma Aldrich, D8418) was 0.1% in all wells. After 48 h of incubation in the presence of compound, cells were washed once in PBS and fixed with 4% paraformaldehyde (Thermofisher Scientific, 28,908) supplemented with 10 µg/mL Hoechst 33,342 (ThermoFisher Scientific, H3570) for 15 min. […] Image feature extraction was carried out using CellProfiler software. Data aggregation, normalization and distance score calculations were carried out using StratoMineR software.
# SRPK1 = biological target: T2, SRPK1 (Homo sapiens, UniProt Q96SB4); assay: KiNativ in-cell kinase binding, SRPK1; conditions: SH-SY5Y cells, Labeling Site Lys2
# T2 construct: endogenous in cells; host or cells: SH-SY5Y
# T2 sequence (Q96SB4 whole entry): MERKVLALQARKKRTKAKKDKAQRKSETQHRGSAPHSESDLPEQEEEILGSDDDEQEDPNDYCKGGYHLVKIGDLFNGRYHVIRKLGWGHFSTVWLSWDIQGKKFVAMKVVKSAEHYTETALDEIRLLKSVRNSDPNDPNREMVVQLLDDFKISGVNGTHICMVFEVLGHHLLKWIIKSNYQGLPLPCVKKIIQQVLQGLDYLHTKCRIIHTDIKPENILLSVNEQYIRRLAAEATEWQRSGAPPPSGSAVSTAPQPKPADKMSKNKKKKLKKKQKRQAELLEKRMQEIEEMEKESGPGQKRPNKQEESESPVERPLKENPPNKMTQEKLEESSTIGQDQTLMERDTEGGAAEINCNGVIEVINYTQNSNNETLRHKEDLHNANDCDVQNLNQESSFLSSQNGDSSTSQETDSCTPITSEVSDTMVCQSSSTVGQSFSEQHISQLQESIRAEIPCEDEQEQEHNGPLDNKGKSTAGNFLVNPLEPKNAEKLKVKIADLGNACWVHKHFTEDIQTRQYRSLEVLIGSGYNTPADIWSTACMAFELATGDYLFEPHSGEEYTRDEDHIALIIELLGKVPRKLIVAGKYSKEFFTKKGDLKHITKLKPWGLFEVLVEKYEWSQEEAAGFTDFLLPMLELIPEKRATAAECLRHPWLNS
# Source text: (§1) As KINOMEscan is an in vitro assay, and as different cell types have variable kinase expression profiles we sought to determine the kinase binding profile in our SH-SY5Y TFEB-relocalization cell model. […] Bound kinases were pulled down and analyzed by mass spectrometry to determine the in situ kinase binding profile for each compound.
# TLK1 = biological target: T3, TLK1 (Homo sapiens, UniProt Q9UKI8); assay: KiNativ in-cell kinase binding, TLK1; conditions: SH-SY5Y cells, Labeling Site Lys2
# T3 construct: endogenous in cells; host or cells: SH-SY5Y
# T3 sequence (Q9UKI8 whole entry): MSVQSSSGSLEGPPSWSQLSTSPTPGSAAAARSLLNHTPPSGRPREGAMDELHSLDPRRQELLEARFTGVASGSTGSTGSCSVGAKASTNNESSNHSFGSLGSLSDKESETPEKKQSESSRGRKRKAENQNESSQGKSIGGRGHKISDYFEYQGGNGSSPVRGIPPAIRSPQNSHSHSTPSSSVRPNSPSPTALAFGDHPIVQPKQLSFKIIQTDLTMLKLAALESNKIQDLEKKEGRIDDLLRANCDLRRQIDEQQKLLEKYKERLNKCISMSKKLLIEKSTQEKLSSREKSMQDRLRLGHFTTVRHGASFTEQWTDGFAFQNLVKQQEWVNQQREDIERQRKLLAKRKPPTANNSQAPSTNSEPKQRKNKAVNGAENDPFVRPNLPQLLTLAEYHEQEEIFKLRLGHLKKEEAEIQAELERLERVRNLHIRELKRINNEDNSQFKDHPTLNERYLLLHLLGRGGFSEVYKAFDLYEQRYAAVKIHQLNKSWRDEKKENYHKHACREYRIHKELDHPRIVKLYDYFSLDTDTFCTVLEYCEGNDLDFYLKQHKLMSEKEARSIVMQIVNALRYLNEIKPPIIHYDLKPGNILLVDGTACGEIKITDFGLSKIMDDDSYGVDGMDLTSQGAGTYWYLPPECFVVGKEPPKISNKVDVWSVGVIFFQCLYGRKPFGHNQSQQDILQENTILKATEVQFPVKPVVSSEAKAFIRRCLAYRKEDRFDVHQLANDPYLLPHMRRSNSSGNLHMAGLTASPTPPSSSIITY
# Source text: as §1
# TFE3 = TFE3 translocation in CRISPRi PRKD2 or PRKD3 knockdown SH-SY5Y cells; format: cell-based; conditions: SH-SY5Y dCas9-KRAB, Scr, PRKD2 or PRKD3 targeting guides, increasing concentrations
# PRKD2 = biological target: T4, PRKD2 (Homo sapiens, UniProt Q9BZL6); assay: KiNativ in-cell kinase binding, PRKD2; parameters: endogenous in cells; host or cells: SH-SY5Y
# T4 sequence (Q9BZL6 1-878): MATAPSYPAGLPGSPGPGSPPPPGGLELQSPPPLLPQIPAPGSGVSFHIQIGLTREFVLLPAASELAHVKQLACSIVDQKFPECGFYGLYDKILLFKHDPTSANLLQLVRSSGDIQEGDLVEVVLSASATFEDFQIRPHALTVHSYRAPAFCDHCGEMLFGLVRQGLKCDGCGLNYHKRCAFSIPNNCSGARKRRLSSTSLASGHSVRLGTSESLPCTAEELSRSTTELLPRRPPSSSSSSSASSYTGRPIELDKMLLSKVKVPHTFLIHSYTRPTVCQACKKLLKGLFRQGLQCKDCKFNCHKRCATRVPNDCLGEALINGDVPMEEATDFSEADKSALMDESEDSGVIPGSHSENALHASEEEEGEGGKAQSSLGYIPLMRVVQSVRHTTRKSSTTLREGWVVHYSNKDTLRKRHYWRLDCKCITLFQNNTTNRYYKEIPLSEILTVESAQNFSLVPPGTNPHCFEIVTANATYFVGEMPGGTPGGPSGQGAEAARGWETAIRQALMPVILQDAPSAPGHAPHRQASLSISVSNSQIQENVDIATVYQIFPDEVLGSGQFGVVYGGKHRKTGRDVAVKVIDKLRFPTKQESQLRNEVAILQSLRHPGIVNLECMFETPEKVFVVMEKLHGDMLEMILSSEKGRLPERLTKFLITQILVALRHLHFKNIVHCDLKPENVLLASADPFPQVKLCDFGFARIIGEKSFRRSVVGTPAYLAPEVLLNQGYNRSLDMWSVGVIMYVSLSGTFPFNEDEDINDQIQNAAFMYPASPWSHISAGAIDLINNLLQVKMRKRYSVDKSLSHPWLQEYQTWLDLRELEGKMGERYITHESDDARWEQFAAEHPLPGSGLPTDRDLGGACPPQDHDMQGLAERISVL
# Source text: as §1
Structure (SMILES),KINOMEscan PRKD1 (PRKD1),KINOMEscan MAPK9/JNK2 (MAPK9/JNK2),HTT fluorescent aggregates / cells bearing aggregates (in words) (GFP-Ex1HTT74Q),inhibition at 2 µM (SRPK1),inhibition at 2 µM (TLK1),TFE3 nuclear translocation in response to compound after PRKD knockdown (in words) (TFE3),"inhibition at 2 µM (PRKD2; 2µM, SH-SY5Y cells, Labeling Site Lys1, […])",KiNativ binding of PRKD2 (in words) (PRKD2; SH-SY5Y cells treated 2 h)
Cc1cccc(-c2nc(N(C)c3ccc4ncsc4c3)c3ccccc3n2)n1 [NK-161],46,7,–,–,–,–,–,–
Cc1cccc(-c2nc(Nc3ccc4ncsc4c3)c3ccccc3n2)n1 [NK140],–,–,no reduction in fluorescent aggregates,67.9%,48.9%,no increased activity in the TFE3 translocation assay; also recorded: not altered by knockdown of PRKD,51.7%,bound
Cc1cccc(-c2nc(Nc3ccc4nn(C)cc4c3)c3ccccc3n2)n1 [NK167],0,–,–,–,–,–,–,–
